Results on two compounds are retold here after publication PMC7719162, “Positioning of an unprecedented spiro[5.5]undeca ring system into kinase inhibitor space” (Scientific Reports, 2020).

Read-outs that look alike come from different tables or passages of the source.

One experiment concerns the target T1, JNK3 (Homo sapiens, UniProt P53779).
T1 construct: purchased Reaction Biology Corp
To be noted: cited from earlier work.

The target in the next experiment is T2, PKCa (Homo sapiens, UniProt P17252).
T2 construct: purchased Reaction Biology Corp
To be noted: cited from earlier work.

Another experiment deals with T3, DAPK2 (Homo sapiens, UniProt Q9UIK4).
T3 construct: purchased Reaction Biology Corp
To be noted: cited from earlier work.

The next experiment concerns the target T4, TRKB (Homo sapiens, UniProt Q16620).
T4 construct: purchased Reaction Biology Corp
To be noted: cited from earlier work.

Another experiment has as its target T5, JNK1 (Homo sapiens, UniProt P45983).
T5 construct: purchased Reaction Biology Corp
To be noted: cited from earlier work.

The next experiment concerns the target T6, EIF2AK4 (Homo sapiens, UniProt Q9P2K8).
T6 construct: purchased Reaction Biology Corp
The experiment can be described thus: Kinase panel assay (radiolabelled). The experiment is classed as biochemical. To be noted: 30 μM compound, ATP 10 μM, duplicates Data 1/Data 2.

The next experiment concerns the target T7, MST3/STK24 (Homo sapiens, UniProt Q9Y6E0).
T7 construct: purchased Reaction Biology Corp
The experiment in a line: Kinase panel assay (radiolabelled). The experiment is classed as biochemical. The conditions noted are these: ATP 10 μM.

In a further experiment the target is GSK3β (Homo sapiens, UniProt P49841). The experiment in a line: GSK3β radiolabelled kinase assay (% residual activity, IC50, ATP competition). The experiment is classed as biochemical.
GSK3β, sequence (P49841 whole entry): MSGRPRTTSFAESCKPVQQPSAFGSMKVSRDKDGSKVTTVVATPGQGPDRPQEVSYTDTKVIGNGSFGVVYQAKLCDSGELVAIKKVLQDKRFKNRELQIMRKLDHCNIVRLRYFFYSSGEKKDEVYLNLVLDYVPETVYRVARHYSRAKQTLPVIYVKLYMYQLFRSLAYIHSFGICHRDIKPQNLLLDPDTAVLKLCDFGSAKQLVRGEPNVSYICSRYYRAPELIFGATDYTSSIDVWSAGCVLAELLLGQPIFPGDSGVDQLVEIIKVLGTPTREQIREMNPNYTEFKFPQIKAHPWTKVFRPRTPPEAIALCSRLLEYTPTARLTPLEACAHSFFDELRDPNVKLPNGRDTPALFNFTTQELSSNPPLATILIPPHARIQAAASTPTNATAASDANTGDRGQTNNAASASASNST
In a further experiment the target is T8, mTOR/FRAP1 (Homo sapiens, UniProt P42345).
T8 construct: purchased Reaction Biology Corp
The experiment in a line: Kinase panel assay (radiolabelled). The conditions noted are these: 30 μM compound, ATP 10 μM, duplicates Data 1/Data 2. The class given is biochemical.

In another experiment the target is T9, TRKA (G595R) (Homo sapiens, UniProt P04629, G595R).
T9 construct: purchased Reaction Biology Corp
T9 sequence (P04629 33-796 G595R): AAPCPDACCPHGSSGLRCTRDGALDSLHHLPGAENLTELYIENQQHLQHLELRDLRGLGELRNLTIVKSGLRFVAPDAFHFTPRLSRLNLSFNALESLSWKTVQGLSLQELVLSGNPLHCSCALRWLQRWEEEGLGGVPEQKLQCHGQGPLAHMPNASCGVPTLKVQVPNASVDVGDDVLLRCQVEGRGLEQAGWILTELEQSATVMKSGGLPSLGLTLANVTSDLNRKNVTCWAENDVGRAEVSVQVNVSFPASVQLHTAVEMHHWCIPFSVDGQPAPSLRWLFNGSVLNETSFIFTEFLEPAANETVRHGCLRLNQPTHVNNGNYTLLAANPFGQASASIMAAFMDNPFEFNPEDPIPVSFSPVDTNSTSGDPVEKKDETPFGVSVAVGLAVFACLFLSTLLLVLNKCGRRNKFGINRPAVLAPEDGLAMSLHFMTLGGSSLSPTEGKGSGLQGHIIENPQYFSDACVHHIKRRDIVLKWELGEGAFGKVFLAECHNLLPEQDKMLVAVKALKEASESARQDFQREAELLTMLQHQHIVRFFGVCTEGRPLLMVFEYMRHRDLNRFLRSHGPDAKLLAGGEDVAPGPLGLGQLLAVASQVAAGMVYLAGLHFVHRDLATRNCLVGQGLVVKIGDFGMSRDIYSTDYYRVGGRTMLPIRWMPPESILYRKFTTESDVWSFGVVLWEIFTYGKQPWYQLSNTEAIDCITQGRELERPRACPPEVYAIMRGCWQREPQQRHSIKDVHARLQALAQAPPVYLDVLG
The experiment can be described thus: Kinase panel assay (radiolabelled). The experiment is classed as biochemical. The conditions noted are these: 30 μM compound, ATP 10 μM, duplicates Data 1/Data 2.

A further experiment has as its target T10, TRKC (G623E) (Homo sapiens, UniProt Q16288, G623E).
T10 construct: purchased Reaction Biology Corp
The experiment can be described thus: Kinase panel assay (radiolabelled). The experiment is classed as biochemical. To be noted: 30 μM compound, ATP 10 μM, duplicates Data 1/Data 2.

A further experiment concerns the target T11, STK25/YSK1 (Homo sapiens, UniProt O00506).
T11 construct: purchased Reaction Biology Corp
The experiment can be described thus: Kinase panel assay (radiolabelled). The experiment is classed as biochemical. To be noted: ATP 10 μM.

A further experiment addresses T12, JNK2 (Homo sapiens, UniProt P45984).
T12 construct: purchased Reaction Biology Corp
The experiment in a line: Kinase panel assay (radiolabelled). The experiment is classed as biochemical. The conditions noted are these: ATP 10 μM.

A further experiment addresses T13, EIF2AK3 (Homo sapiens, UniProt Q9NZJ5).
T13 construct: purchased Reaction Biology Corp
The experiment can be described thus: Kinase panel assay (radiolabelled). To be noted: 30 μM compound, ATP 10 μM, duplicates Data 1/Data 2. The experiment is classed as biochemical.

For the next experiment, the target named is TRKA-TPM3 (Homo sapiens, UniProt P04629). The experiment in a line: Kinase panel assay (radiolabelled). The class given is biochemical. To be noted: 30 μM compound, ATP 10 μM, duplicates Data 1/Data 2.
For experiment [1], the target named is T14, AMPK(A2/B2/G1) (Homo sapiens, UniProt P54646).
T14 construct: purchased Reaction Biology Corp
The experiment in a line: Kinase panel assay (radiolabelled). The experiment is classed as biochemical. The conditions noted are these: 30 μM compound, ATP 10 μM; duplicates Data 1/Data 2.

In experiment [2] the target is T15, AMPK(A2/B2/G1) (Homo sapiens, UniProt O43741+P54619+P54646).
T15 construct: purchased Reaction Biology Corp
The experiment in a line: Kinase panel assay (radiolabelled). The class given is biochemical. The conditions noted are these: 30 μM compound, ATP 10 μM; duplicates Data 1/Data 2; read-out: % Enzyme Activity (relative to DMSO controls).

Another experiment concerns IL-1β. The experiment can be described thus: Secreted IL-1β ELISA in LPS-induced BV-2 cells. The experiment is classed as cell-based, murine. The protocol:
To evaluate the secreted level of Prostaglandin E2 (PGE2), Tumor necrosis factor (TNF-α), Interleukin (IL-6), Interleukin (IL-1β), BV2 cells were seeded in a 6 well plate at the density of 1.5 × 10^6 cells/well in DMEM and incubated for 24 h. Seeded cells sere pretreated and, activated with LPS for next 24 h. conditioned medium from treated cells were collected and stored at -80 degree for longer period of time. The amount of TNF-α, IL-1β, PGE2,and IL-6 were evaluated using the competitive enzyme immunoassay kit. PGE2 kit were obtained from (Cayman Chemical, Ann Arbor, MI, USA) and TNF-α, IL-1β, and IL-6 were measured using ELISA development kits (R&D Systems, Minneapolis, MN, USA). All the protocol was exactly followed as written in the manual.

The next experiment has as its target T16, GSK3b (Homo sapiens, UniProt P49841).
T16 construct: purchased Reaction Biology Corp
The experiment can be described thus: Kinase panel assay (radiolabelled). The class given is biochemical.

The target of a further experiment is T17, PI3Ka (p110a/p85a) (Homo sapiens, UniProt P42336).
T17 construct: purchased Reaction Biology Corp
The experiment can be described thus: Kinase panel assay (lipid kinase). The conditions noted are these: 30 μM compound, ATP 10 μM, duplicates Data 1/Data 2. The class given is biochemical.

The next experiment has as its target T18, PI3Kg (p110g) (Homo sapiens, UniProt P48736).
T18 construct: purchased Reaction Biology Corp
The experiment can be described thus: Kinase panel assay (lipid kinase). The class given is biochemical. The conditions noted are these: 30 μM compound, ATP 10 μM, duplicates Data 1/Data 2.

Where [3] appears, read: read-out: % Enzyme Activity (relative to DMSO controls).
[4] abbreviates: 30 μM compound, duplicates Data 1/Data 2.
Setting [5] is: 30 μM compound, duplicates Data 1/Data 2, read-out: % Enzyme Activity (relative to DMSO controls).
Setting [6] is: 30 μM, average ± SD, read-out: % Residual Activity at 30 μM.

As usually defined, the IC50 is the concentration needed to halve the response being measured. Usually inhibition stands for the change of the read-out against control, counted positive when it falls.

T11 sequence (O00506 whole entry): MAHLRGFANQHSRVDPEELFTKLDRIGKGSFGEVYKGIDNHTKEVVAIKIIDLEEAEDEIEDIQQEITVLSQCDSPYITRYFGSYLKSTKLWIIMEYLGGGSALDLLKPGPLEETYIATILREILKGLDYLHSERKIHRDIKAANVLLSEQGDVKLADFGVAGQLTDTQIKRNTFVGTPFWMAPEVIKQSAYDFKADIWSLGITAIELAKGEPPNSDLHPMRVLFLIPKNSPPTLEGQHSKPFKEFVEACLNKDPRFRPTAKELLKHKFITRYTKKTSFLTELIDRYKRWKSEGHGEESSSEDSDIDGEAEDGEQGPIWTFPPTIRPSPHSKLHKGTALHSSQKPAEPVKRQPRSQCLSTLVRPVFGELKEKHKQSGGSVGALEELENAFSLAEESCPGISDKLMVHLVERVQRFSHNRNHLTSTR
T7 sequence (Q9Y6E0 whole entry): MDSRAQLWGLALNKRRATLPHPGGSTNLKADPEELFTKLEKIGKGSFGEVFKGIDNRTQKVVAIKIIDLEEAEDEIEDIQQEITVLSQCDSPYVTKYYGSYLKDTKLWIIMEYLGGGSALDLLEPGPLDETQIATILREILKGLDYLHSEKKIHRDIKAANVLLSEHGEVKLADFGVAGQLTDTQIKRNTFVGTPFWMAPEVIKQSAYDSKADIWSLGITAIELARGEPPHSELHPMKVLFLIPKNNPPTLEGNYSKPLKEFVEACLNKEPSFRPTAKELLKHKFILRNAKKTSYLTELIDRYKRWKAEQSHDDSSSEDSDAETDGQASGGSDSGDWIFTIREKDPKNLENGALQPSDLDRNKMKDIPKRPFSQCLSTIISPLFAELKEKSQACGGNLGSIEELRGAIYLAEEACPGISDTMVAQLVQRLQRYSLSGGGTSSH
T16 sequence (P49841 whole entry): as the sequence (P49841 whole entry) above
T12 sequence (P45984 whole entry): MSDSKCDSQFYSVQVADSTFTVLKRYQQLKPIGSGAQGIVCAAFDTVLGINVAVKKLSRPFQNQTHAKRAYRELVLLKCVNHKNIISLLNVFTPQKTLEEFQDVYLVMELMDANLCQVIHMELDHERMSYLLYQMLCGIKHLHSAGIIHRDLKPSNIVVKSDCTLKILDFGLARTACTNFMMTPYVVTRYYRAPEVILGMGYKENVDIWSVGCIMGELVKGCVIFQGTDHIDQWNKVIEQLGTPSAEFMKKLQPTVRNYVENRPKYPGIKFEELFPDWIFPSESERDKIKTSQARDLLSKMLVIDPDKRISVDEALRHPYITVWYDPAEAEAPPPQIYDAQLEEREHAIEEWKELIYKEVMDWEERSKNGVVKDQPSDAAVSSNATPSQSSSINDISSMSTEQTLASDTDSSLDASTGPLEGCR
T13 sequence (Q9NZJ5 30-1116): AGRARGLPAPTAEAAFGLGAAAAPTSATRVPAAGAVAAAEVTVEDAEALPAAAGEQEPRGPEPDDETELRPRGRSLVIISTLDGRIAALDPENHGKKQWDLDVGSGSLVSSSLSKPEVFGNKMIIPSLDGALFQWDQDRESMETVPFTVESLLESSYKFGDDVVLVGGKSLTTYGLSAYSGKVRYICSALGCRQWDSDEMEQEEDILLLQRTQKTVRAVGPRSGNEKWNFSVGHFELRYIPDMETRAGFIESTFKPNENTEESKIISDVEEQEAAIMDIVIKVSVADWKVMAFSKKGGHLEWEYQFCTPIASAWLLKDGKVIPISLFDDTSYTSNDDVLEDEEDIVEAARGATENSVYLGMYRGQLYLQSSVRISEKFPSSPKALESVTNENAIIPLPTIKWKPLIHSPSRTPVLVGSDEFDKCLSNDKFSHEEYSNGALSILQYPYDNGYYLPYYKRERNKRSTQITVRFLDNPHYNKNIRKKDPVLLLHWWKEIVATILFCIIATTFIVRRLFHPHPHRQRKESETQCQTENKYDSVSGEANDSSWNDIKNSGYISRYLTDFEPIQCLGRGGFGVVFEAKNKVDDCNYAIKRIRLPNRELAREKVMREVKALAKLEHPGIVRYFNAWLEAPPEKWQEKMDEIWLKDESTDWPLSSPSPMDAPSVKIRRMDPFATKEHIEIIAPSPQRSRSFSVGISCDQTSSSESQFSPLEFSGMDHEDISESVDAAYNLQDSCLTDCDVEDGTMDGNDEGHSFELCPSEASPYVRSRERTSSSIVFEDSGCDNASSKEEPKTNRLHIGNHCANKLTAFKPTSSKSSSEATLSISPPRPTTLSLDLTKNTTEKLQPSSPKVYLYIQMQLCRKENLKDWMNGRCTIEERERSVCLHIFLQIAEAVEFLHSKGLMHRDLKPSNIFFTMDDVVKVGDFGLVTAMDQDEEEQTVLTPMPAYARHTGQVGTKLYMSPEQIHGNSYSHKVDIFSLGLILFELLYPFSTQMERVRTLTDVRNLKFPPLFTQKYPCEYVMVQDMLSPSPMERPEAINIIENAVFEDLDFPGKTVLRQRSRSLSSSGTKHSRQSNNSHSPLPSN
T18 sequence (P48736 whole entry): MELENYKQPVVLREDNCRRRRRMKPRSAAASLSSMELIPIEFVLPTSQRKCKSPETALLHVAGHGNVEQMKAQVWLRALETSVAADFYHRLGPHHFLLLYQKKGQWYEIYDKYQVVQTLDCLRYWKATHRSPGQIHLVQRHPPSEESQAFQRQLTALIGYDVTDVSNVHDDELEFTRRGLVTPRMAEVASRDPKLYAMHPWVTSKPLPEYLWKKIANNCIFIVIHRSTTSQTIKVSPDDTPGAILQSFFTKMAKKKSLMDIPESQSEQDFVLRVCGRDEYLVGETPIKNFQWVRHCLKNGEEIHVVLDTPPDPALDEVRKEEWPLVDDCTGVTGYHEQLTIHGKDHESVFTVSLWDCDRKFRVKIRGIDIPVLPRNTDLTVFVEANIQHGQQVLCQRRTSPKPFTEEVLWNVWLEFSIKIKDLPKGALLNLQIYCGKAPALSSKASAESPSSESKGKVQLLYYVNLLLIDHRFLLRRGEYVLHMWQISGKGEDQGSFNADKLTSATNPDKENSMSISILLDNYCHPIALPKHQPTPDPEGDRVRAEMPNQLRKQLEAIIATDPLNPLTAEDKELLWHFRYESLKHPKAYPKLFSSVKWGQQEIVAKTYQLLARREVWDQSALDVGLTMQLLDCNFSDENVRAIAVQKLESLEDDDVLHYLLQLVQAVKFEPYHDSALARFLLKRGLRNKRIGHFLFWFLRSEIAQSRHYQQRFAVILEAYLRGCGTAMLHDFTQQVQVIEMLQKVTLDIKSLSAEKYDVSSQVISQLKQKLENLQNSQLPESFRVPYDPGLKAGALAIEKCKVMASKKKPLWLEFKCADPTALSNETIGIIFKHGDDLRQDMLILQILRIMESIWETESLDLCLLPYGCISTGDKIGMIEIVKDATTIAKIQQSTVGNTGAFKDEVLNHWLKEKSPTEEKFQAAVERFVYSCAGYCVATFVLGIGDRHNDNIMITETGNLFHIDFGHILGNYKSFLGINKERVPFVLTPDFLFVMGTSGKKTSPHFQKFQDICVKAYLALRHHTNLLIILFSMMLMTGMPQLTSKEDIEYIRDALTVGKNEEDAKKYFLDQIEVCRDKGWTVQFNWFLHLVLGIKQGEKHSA

On to `O=C1C=CC2(C=C1)OCC(Cc1cc(C(F)(F)F)cc(C(F)(F)F)c1)C(=O)N2c1ccccc1` (racemic) [1c], for which the “% Residual Activity at 30 μM” value at JNK3 is reported as 72.0 ± 2.0%; at PKCa it was 45.6 ± 1.2%; at DAPK2, 120.1 ± 0.6%; on TRKB, 94.1 ± 1.7%; at JNK1, 35.8 ± 0.3%.
With `O=C1C=CC2(C=C1)OCC(Cc1cn(-c3cccc(Cl)c3)nn1)C(=O)N2c1ccccc1` (stereo not drawn) [2d, 3-((1-(3-Chlorophenyl)-1H-1,2,3-triazol-4-yl)methyl)-5-phenyl-1-oxa-5-azaspiro[5.5]undeca-7,10-diene-4,9-dione], the “% Enzyme Activity (relative to DMSO controls)” value at EIF2AK4 is given as 102.49%; at MST3/STK24 (setting [4]), 89.43%; on mTOR/FRAP1 it was 96.09%; on TRKA (G595R), 99.08%; at TRKC (G623E), 114.78%; on STK25/YSK1 (setting [4]) it was 61.07%. In addition, the “% Enzyme Activity (relative to DMSO controls)” value at JNK2 (setting [4]) was found to be 79.67%; at EIF2AK3, 70.64%; on TRKA-TPM3 it was 95.56%; on AMPK(A2/B2/G1) [1], 89.86%; on GSK3b (30 μM compound, ATP 10 μM, duplicates Data 1/Data 2) it was 1.64%; at PI3Ka (p110a/p85a) it was 250.92%. At PI3Kg (p110g), the “% Enzyme Activity (relative to DMSO controls)” value was 85.15%. For the same compound, the remaining activity at 30 µM at EIF2AK4 (setting [3]) is 104%; on MST3/STK24 (setting [5]), 94.2%; on MST3/STK24 (setting [6]), 91.8 ± 3.4%; on mTOR/FRAP1 (setting [3]) it was 103%; on TRKA (G595R) (setting [3]), 103%; at TRKC (G623E) (setting [3]) it was 118%. In addition, the remaining activity at 30 µM on STK25/YSK1 (setting [5]) turned out to be 63.3%; at STK25/YSK1 (setting [6]), 62.2 ± 1.6%; at JNK2 (setting [5]) it was 80.3%; on JNK2 (setting [6]), 80 ± 0.4%; at EIF2AK3 (setting [3]), 70.8%; on TRKA-TPM3 (setting [3]), 98.2%. For the same compound, the remaining activity at 30 µM stood at 94% on AMPK(A2/B2/G1) [2]; 2.81% on GSK3b (30 μM compound, ATP 10 μM, duplicates Data 1/Data 2, read-out: % Enzyme Activity (relative to DMSO controls)); 2.2 ± 0.8% at GSK3b (30 μM, ATP 10 μM, average ± SD, read-out: % Residual Activity at 30 μM); 252% on PI3Ka (p110a/p85a) (setting [3]); 87.4% on PI3Kg (p110g) (setting [3]). Moreover, the IC50 at GSK3β (ATP 1 μM (Table 2), read-out: IC50 on GSK3β (converted)) was 7.04 µM. For the same compound, at GSK3β (at 10 μM compound), the remaining activity at 10 µM was 51.1 ± 6.1%. Also, the “IL-1β level” value in the experiment with IL-1β was “concentration-dependent manner”. Besides, the inhibition at 30 µM on GSK3b (30 μM, read-out: inhibition of GSK-3β in 70-kinase panel) was more than 90%.
